According to PMC10482975 (Nature Communications, 2023):
Where two headings read alike, the source gives them in different places.

Key:
[1] = molecular target: T1, M4 mAChR (Homo sapiens, UniProt P08173); experiment: biochemical; conditions: read-out: [3H]-NMS binding remaining (0 min = 100), MEAN, M4 mAChR; for remaining activity at 0.1 µM: 0.1 μM Xano alone; for remaining activity at 1 µM: 1 μM Xano alone; for remaining activity at 10 µM: 10 μM Xano alone
T1 sequence (P08173 1-479): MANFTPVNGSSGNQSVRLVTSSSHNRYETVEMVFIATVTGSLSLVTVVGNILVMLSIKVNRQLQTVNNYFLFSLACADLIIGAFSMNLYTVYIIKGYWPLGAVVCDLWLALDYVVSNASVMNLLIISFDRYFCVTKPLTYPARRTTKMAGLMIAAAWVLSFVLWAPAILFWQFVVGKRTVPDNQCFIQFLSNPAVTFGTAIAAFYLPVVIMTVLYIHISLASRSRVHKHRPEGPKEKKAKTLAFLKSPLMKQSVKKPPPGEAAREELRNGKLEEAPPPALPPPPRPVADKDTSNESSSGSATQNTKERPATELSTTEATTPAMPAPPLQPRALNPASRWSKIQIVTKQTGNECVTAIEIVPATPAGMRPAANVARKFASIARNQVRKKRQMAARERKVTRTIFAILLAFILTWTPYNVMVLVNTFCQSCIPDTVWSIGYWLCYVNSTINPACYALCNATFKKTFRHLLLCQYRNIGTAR

[2] = tested on: M4 mAChR knockout (KO) mice / M1 mAChR KO mice; conditions: cited from earlier work
[3] = molecular target: T1, M4 mAChR

Structure (SMILES): CCCCCCOc1nsnc1C1=CCCN(C)C1 [xanomeline]
- remaining activity at 0.1 µM ([1]; 0.5 h, 30 min): 90.3%
- remaining activity at 1 µM ([1]; 0.5 h, 30 min): 87.3%
- remaining activity at 100 µM ([1]; 0.5 h, 10 μM Atropine + 100 μM Xanomeline, 30 min): 85.1%
- remaining activity at 10 µM ([1]; 0.5 h, 30 min): 77.6%
- remaining activity at 100 µM ([1]; 0.5 h, 100 μM Xano alone, 30 min): 85.7%
- remaining activity at 0.1 µM ([1]; 1 h, 60 min): 94.4%
- remaining activity at 1 µM ([1]; 1 h, 60 min): 76.8%
- remaining activity at 100 µM ([1]; 1 h, 10 μM Atropine + 100 μM Xanomeline, 60 min): 69.6%
- remaining activity at 10 µM ([1]; 1 h, 60 min): 61%
- remaining activity at 100 µM ([1]; 1 h, 100 μM Xano alone, 60 min): 73.5%
- remaining activity at 0.1 µM ([1]; 1.5 h, 90 min): 98.4%
- remaining activity at 1 µM ([1]; 1.5 h, 90 min): 74.4%
- remaining activity at 100 µM ([1]; 1.5 h, 10 μM Atropine + 100 μM Xanomeline, 90 min): 64.1%
- remaining activity at 10 µM ([1]; 1.5 h, 90 min): 50.9%
- remaining activity at 100 µM ([1]; 1.5 h, 100 μM Xano alone, 90 min): 62.6%
- remaining activity at 0.1 µM ([1]; 2 h, 120 min): 94.7%
- remaining activity at 1 µM ([1]; 2 h, 120 min): 64.9%
- remaining activity at 100 µM ([1]; 2 h, 10 μM Atropine + 100 μM Xanomeline, 120 min): 52.9%
- remaining activity at 100 µM ([1]; 2 h, 100 μM Xano alone, 120 min): 61.2%
- remaining activity at 0.1 µM ([1]; 3 h, 180 min): 92.1%
- remaining activity at 1 µM ([1]; 3 h, 180 min): 60.5%
- remaining activity at 10 µM ([1]; 3 h, 180 min): 32.7%
- remaining activity at 100 µM ([1]; 3 h, 100 μM Xano alone, 180 min): 46.6%
- remaining activity at 0.1 µM ([1]; 5 h, 300 min): 89.8%
- remaining activity at 1 µM ([1]; 5 h, 300 min): 57.5%
- remaining activity at 100 µM ([1]; 5 h, 10 μM Atropine + 100 μM Xanomeline, 300 min): 26.7%
- remaining activity at 10 µM ([1]; 5 h, 300 min): 17.9%
- remaining activity at 100 µM ([1]; 5 h, 100 μM Xano alone, 300 min): 34.6%
- antipsychotic efficacy ([2]; M1 mAChR KO mice): partially reduced
- antipsychotic efficacy ([2]; M4 mAChR knockout (KO) mice): completely abolished
- rebinding of [3H]-NMS (in words) ([3]; 10 µM xanomeline alone): prevented the rebinding
- [3H]-NMS dissociation (in words) ([3]; 100 µM xanomeline alone): slowed to the same extent
